From patent US11479604B2, “Immunomodulatory peptides and methods for modulating the immune system in a subject” (Recepta Biopharma S.A., priority 2017, dated 2022) come the findings set out here.

Test [1] has as its system B16F10-Nex2 melanoma cells. The test is described as follows: Syngeneic metastatic melanoma model, lung nodule count. It counts as in vivo, C57BL/6 mice. As to the method:
Male C57BL/6 mice, 6 to 8-week-old were obtained from the Center for Development of Experimental Models (CEDEME), Federal University of Sao Paulo (UNIFESP). For the in vivo metastatic model, C57BL/6 mice received one intravenous (i.v.) injection of 2×10^5 viable B16-F10-Next melanoma cells in 100 μL. […] The control group received 100 μL PBS. Twenty-two days later, mice (minimum n=3 per group) had their lungs harvested, and the number of macroscopic melanotic nodules were counted. The Ethical Committee of Federal University of São Paulo, Project no. 1234, 2011, approved all experiments with animals, according to International guidelines. For the subcutaneous model, mice were injected with 5×10^5 tumor cells suspended in 100 μL of PBS in the right flank via the subcutaneous route. The peptide (300 μg) was solubilized in 10 μL of distilled H2O and 90 μL of PBS and injected per mouse via the intraperitoneal route. The administration of the peptide was performed in 5 alternate days initiating one day after tumor challenge. Tumor longitudinal diameter (D) and transverse diameter (d) were measured every 2 days until the tumor volume reached 3,000 mm3. Animals were sacrificed when the allowed volume was reached. Volume was calculated using the formula v=Dd^2×0.52. Tumor Cell Growth In Vitro and In Vivo Details of the in vitro tumor cell growth, cytotoxicity tests, determination of viable cells and in vivo protection experiments with B16F10 cells in a mouse metastatic model are described in Polonelli et al. (PLoS One. 3(6):e2371, 2008) and Dobroff et al. (Transl. Onc., 3: 204-217, 2010).
6 to 8 Week-old C57BL/6 mice (n=5, per group) were intravenously challenged with 1×10^5 of syngeneic B16F10-Nex2 viable cells in 0.1 mL of RPMI medium without FBS, and treated on the next day with intraperitoneal doses of 300 μg (10 mg/kg) each, of Scr1, Scr2, Scr3 or Scr4 peptide or with the control vehicle (PBS) in alternate days, total of 5 doses. After 14 days, mice were euthanized, and lungs were harvested and assessed for metastatic colonization. The number of metastatic lesions was quantified using a stereo microscope (Nikon, Tokyo). The percentage of the tumor area/total area was also quantified by ImageJ software.
B16F10-Nex2 tumor cells (2×10^5) in RPMI (100 μl) were injected in both animal groups in the tail veins on day 0. Animals were sacrificed on day 22, or 10 days after the last administration of the peptide, and their lungs were examined for dark melanotic nodules.
C57Bl6 mice were intravenously challenged with 4×10^5 syngeneic B16F10-Nex2 cells in 0.1 ml of RPMI without FBS.
Mice were injected with 5×10^5 B16F10-Nex2 cells i.v. suspended in 100 μl PBS. […] Imiquimod at 50 μg/100 μl was injected i.p. in 3 alternate days; CpG ODN 1585, i.p., in two alternate days; and Poly (I:C), i.p., in two alternate days. After 15 days of tumor challenge, the animals were sacrificed, the lungs were removed and the pulmonary nodules were counted.

Another test concerns CD11c+ cells. The test is described as follows: TGF-beta1 ELISA of CD11c+ cells from lymphoid organs of melanoma-bearing treated mice. In kind it is in vivo, C57Bl6 mice. The conditions noted are these: 300 μg/dose i.p., day 17. As to the method:
Animals were sacrificed on day 17 and their lungs, cervical and axillary lymph nodes and spleen were processed for examination. Lymph nodes and spleen were macerated separately, DMEM was added and passed through a cell strainer. CD11c+ cells were isolated using mouse CD11c+ beads and magnetic sorting. Cells were suspended in R10 medium and plated in […] at 10^6 cells/well. Cells were incubated for 24 h with or without tumor cell lysate (B16F10 stimulus). The supernatant was used in a TGF-beta1 ELISA test.
A general note: ELISA stands for enzyme-linked immunosorbent assay.

For test [2], the system named is B16F10-Nex2 melanoma cells. The test is described as follows: Prophylactic adoptive transfer of peptide-stimulated dendritic cells, metastatic melanoma. It counts as in vivo, syngeneic mice. Conditions: DCs incubated with 50 μg/ml peptide, with or without tumor cell lysate; s.c.; tumor challenge day 14, count day 29. The procedure:
DCs were obtained from the bone marrow of 6 to 8-week-old C57Bl6 mice. Briefly, femora and tibiae from mice were removed and stripped of muscles and tendons; both bone ends were cut, and bone marrow was extracted by placing the bone pieces into 1-ml tips, which in turn were inserted into 15-ml tubes and centrifuged for 10 minutes at 1500 rpm. Cells were resuspended in DMEM and cell clusters were dissociated by repeated pipetting. The total bone marrow cells were cultured in 100-mm treated tissue culture dish in 10 ml of R10 medium (DMEM medium supplemented with 2 mM glutamine, 10,000 U/ml penicillin, 10 mg/ml streptomycin, 50 μM 2-mercaptoethanol, 1 mM sodium pyruvate, MEM-nonessential aminoacids, MEM Vitamin solution, 10% heat-inactivated fetal bovine serum and GM-CSF (20 ng/ml) and IL-4 (40 ng/ml). Fresh medium (3 ml) with GM-CSF (200 ng/ml) and IL-4 (400 ng/ml) was added every 3 days. On day 7, adherent cells, that were harvested using PBS 2 mM EDTA, together with the non-adherent cells were pooled and used as the starting cell source for the experiments. BMDC Protocol 2
DCs were inoculated s.c. in syngeneic mice. On day 14, mice were inoculated i.v. with melanoma tumor cells (5×10^5 cells) and on day 29, the lung melanotic nodules were counted.

For test [3], the system named is human mo-DC co-cultured with allogeneic lymphocytes. The test is described as follows: Allogeneic lymphocyte proliferation induced by mo-DC of healthy donors (CFSE). In kind it is cell-based. The conditions noted are these: TNF, tumor lysate and peptide; mo-DC:lymphocyte 1:30. The procedure:
Mo-DC were co-cultured with allogeneic lymphocytes (DC:Ly=1:30) to evaluate their ability to induce lymphocyte proliferation. This was measured by carboxyfluorescein succinimidyl ester (CFSE—Molecular Probes) dilution and activation measured by correlation among CD4/CD25 and Foxp3 expression (Clavijo-Salomon et al., 2016).
After two days in co-culture, the dilution of CFSE in lymphocytes was evaluated as a measurement of lymphocyte proliferation.

Take [CARGETARATFAYWGQGC], NH2 (C-C) [Rb9]: the “protection in the metastatic model” value in test [1] (50-100 μg i.p. doses) is recorded as “significant protection”. The “efficiency of administration route for antitumor protection” value in test [1] (i.d. route compared with i.p. and i.v.) is given as “mostly efficient”. For the same substance, the “antitumor activity (pulmonary nodules)” value in test [1] (i.p., alone, Rb9 300 μg 5 consecutive days, Imiquimod 50 μg 3 alternate days, CpG and Poly (I:C) two alternate days, 15 days after challenge) is “Antitumor activities of Rb9 and Imiquimod were the same”. Further, the “antitumor activity of the combination of Rb9 and Imiquimod” value in test [1] (i.p., 15 days after challenge) is recorded as “not additive”. In test [1] (immunocompetent C57Bl6 mice, 250 μg i.p. on days 1,3,5,7,9,11, lungs on day 22), the “number of lung tumor cell nodules (protection)” value is “clearly protective”. Also, the “best concentrations for protection, dose range per animal” value in test [1] (metastatic model) fell in the range of 200 to 300 µg. Also, the “TGF-beta in tumor-lysate stimulated CD11c+ cells from the spleen” value in the test with CD11c+ cells was “increased”. The “TGF-beta secreted by lymph node CD11c+ cells” value in the test on CD11c+ cells (vs vehicle (PBS) control cells stimulated by melanoma lysate) is on record as “greatly reduced”. Further, the “protective effect of peptide-stimulated DCs (lung melanotic nodules)” value in test [2] was “remarkable protective effect”. Moreover, the “lympho-stimulatory ability of mo-DC” value in test [3] was “further enhance the lympho-stimulatory ability”.
